Results: US20250179059A1 (The Regents of the University of California, priority 2021, published 2025)
Where two headings read alike, the source gives them in different places.

How the values were obtained:
[1] = biological target: T1, human BRD4 bromodomain II (Homo sapiens, UniProt O60885); experiment: Bromodomain binding assay (AlphaScreen), BRD4 BDII
T1 construct: human BRD4 bromodomain II [based on Genbank NM_058243, residues 349-460]; host or cells: E. coli
Summary of the method: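 First, His6-tagged BRD4 bromodomain (BDI residues 44-170 or BDII residues 349-460) is incubated with compound for 30 min at room temperature. Next the biotinylated H4 peptide is added for 30 min, then donor and acceptor beads, with 60 min in the dark before AlphaScreen reading and IC50 fitting.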

[2] = system: human SKM-1 acute myeloid leukemia cells; experiment: SKM-1 antiproliferation cell-based assay (ATPlite); conditions: Homo sapiens
Summary of the method: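 Log-phase cells in RPMI 1640/15% FBS were seeded at 34722 cells/mL and exposed for 4 days to nine-concentration DMSO serial dilutions in triplicate. Viability was read as ATP luminescence (ATPlite 1step), and IC50 values came from variable-slope non-linear regression.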

[3] = AlphaScreen assay, Table C2, read-out: BRD4 BDII IC50
[4] = SKM-1, 96 h, SKM-1 antiproliferation assay, 4 days, Table C2
[5] = BRD4 BDII AlphaScreen assay, read-out: BRD4 BD2 IC50
[6] = SKM-1, SKM-1 antiproliferation assay

Structure (SMILES) | IC50 [1, 3] | GI50 [2, 4] | IC50 [1, 5] | GI50 [2, 6]
CN1CCN(c2ccc(-c3cc(F)cc(-c4cnc(C(=O)O)c(N5CCNCC5)c4)c3O)cc2Cl)C1=O [Example 398, 5−(3′-chloro-5-fluoro-2-hydroxy-4′-(3-methyl-2-oxoimidazolidin-1-yl)-[1,1′-biphenyl]-3-yl)-3-(piperazin-1-yl)picolinic acid] | 10 to 100 nM | ≥ 3000 nM |  | 
CC(=O)N(C)C1(c2cccc(-c3cc(F)cc(-c4ccc(-n5ccn(C)c5=O)c(Cl)c4)c3O)c2)CC1 [Example 794, N-(1-(3″-chloro-5′-fluoro-2′-hydroxy-4″-(3-methyl-2-oxo-2,3-dihydro-1H-imidazol-1-yl)-[1,1′:3′,1″-terphenyl]-3-yl)cyclopropyl)-N-methylacetamide] | 10 to 100 nM | 300 to 3000 nM |  | 
COC(=O)Oc1c(-c2ccc(-n3ccn(C)c3=O)c(Cl)c2)cc(F)cc1-c1cnc(C)c(N2CCN(C(C)C)CC2)c1 [Example 877] |  |  | > 100 nM | 0.3 to 30 nM
Cc1cc(-c2ccc(-n3ccn(C)c3=O)c(Cl)c2)c(O)c(-c2ccnc(N3CC(F)(F)[C@](C)(O)C3)c2)n1 [Example 1037, (R)-1-(2-chloro-4-(2′-(3,3-difluoro-4-hydroxy-4-methylpyrrolidin-1-yl)-3-hydroxy-6-methyl-[2,4′-bipyridin]-4-yl)phenyl)-3-methyl-1,3-dihydro-2H-imidazol-2-one] |  |  | 1 to 10 nM | 0.3 to 30 nM
Cc1cc(-c2ccc(-n3ccn(C)c3=O)c(Cl)c2)c(O)c(-c2cc(Cl)c(F)c(N3CCN(C(C)(C)C)CC3)c2)n1 [Example 1010, 1-(4-(2-(3-(4-(tert-butyl)piperazin-1-yl)-5-chloro-4-fluorophenyl)-3-hydroxy-6-methylpyridin-4-yl)-2-chlorophenyl)-3-methyl-1H-imidazol-2(3H)-one] |  |  | 0.01 to 1 nM | 0.3 to 30 nM
CC(C)Oc1cc(-c2cc(F)cc(-c3ccnc(N4CCNCC4)c3)c2O)cc(Cl)c1N1CCN(C)C1=O [Example 418, 1-(3-chloro-5′-fluoro-2′-hydroxy-5-isopropoxy-3′-(2-(piperazin-1-yl)pyridin-4-yl)-[1,1′-biphenyl]-4-yl)-3-methylimidazolidin-2-one] | 10 to 100 nM | 300 to 3000 nM |  | 
CN1CCN(c2c(F)cc(-c3cc(F)cc(-c4ccnc(N5CCNCC5)c4)c3O)cc2F)C1=O [Example 384, 1-methyl-3-(3,5,5′-trifluoro-2′-hydroxy-3′-(2-(piperazin-1-yl)pyridin-4-yl)-[1,1′-biphenyl]-4-yl)imidazolidin-2-one] | 10 to 100 nM | 300 to 3000 nM |  | 
Cn1ccn(-c2ccc(-c3cc(F)cc(-c4cc(N5C[C@@H](N)C6(CC6)C5)c5cn[nH]c5c4)c3O)cc2Cl)c1=O [Example 598, (S)-1-(3′-(4-(7-amino-5-azaspiro[2.4]heptan-5-yl)-1H-indazol-6-yl)-3-chloro-5′-fluoro-2′-hydroxy-[1,1′-biphenyl]-4-yl)-3-methyl-1H-imidazol-2(3H)-one] | 1 to 10 nM | 0.3 to 30 nM |  | 
COc1ncc(-c2cc(F)cc(-c3ccc(-n4ccn(C)c4=O)c(C)c3)c2O)cc1N1CCN(C(C)(C)C)CC1 [Example 948, 1-(3′-(5-(4-(tert-butyl)piperazin-1-yl)-6-methoxypyridin-3-yl)-5′-fluoro-2′-hydroxy-3-methyl-[1,1′-biphenyl]-4-yl)-3-methyl-1,3-dihydro-2H-imidazol-2-one] |  |  | 1 to 10 nM | 0.3 to 30 nM
Cc1cc(-c2ccc(-n3ccn(C)c3=O)c(Cl)c2)c(O)c(-c2cncc(N3CCN(C(C)(C)C)CC3)c2)n1 [Example 1004, 1-(4-(5′-(4-(tert-butyl)piperazin-1-yl)-3-hydroxy-6-methyl-[2,3′-bipyridin]-4-yl)-2-chlorophenyl)-3-methyl-1H-imidazol-2(3H)-one] |  |  | 1 to 10 nM | 0.3 to 30 nM
CN(C)c1ncc(-c2cc(F)cc(-c3ccc(-n4ccn(C)c4=O)c(Cl)c3)c2O)cc1N1CCN(C(C)(C)C)CC1 [Example 922, 1-(3′-(5-(4-(tert-Butyl)piperazin-1-yl)-6-(dimethylamino)pyridin-3-yl)-3-chloro-5′-fluoro-2′-hydroxy-[1,1′-biphenyl]-4-yl)-3-methyl-1H-imidazol-2(3H)-one] |  |  | 0.01 to 1 nM | 0.3 to 30 nM

Now from value to compound:

IC50 [1, 3] | GI50 [2, 4] | IC50 [1, 5] | GI50 [2, 6] | Structure (SMILES)
1 to 10 nM | 30 to 300 nM |  |  | Cn1ccn(-c2ccc(-c3cc(F)cc(-c4ccnc(N5CCCC5)c4)c3O)cc2Cl)c1=O [Example 613, 1-(3-chloro-5′-fluoro-2′-hydroxy-3′-(2-(pyrrolidin-1-yl)pyridin-4-yl)-[1,1′-biphenyl]-4-yl)-3-methyl-1H-imidazol-2(3H)-one]
0.01 to 1 nM | 0.3 to 30 nM |  |  | COCCN1CCN(c2cc(-c3cc(F)cc(-c4ccc(-n5ccn(C)c5=O)c(Cl)c4)c3O)ccn2)CC1 [Example 645, 1-(3-chloro-5′-fluoro-2′-hydroxy-3′-(2-(4-(2-methoxyethyl)piperazin-1-yl)pyridin-4-yl)-[1,1′-biphenyl]-4-yl)-3-methyl-1H-imidazol-2(3H)-one]
1 to 10 nM | 30 to 300 nM |  |  | Cn1ccn(-c2ccc(-c3cc(F)cc(-c4ccnc(N5CCOCC5)c4)c3O)cc2Cl)c1=O [Example 615, 1-(3-chloro-5′-fluoro-2′-hydroxy-3′-(2-morpholinopyridin-4-yl)-[1,1′-biphenyl]-4-yl)-3-methyl-1H-imidazol-2(3H)-one]
1 to 10 nM | 30 to 300 nM |  |  | COCC(COC)N1CCN(c2cc(-c3cc(F)cc(-c4ccc(-n5ccn(C)c5=O)c(Cl)c4)c3O)ccn2)CC1 [Example 733, 1-(3-chloro-3′-(2-(4-(1,3-dimethoxypropan-2-yl)piperazin-1-yl)pyridin-4-yl)-5′-fluoro-2′-hydroxy-[1,1′-biphenyl]-4-yl)-3-methyl-1H-imidazol-2(3H)-one]
0.01 to 1 nM | 30 to 300 nM |  |  | Cn1ccn(-c2ccc(-c3cc(F)cc(-c4ccnc(N5CCN(C6CCOC6)CC5)c4)c3O)cc2Cl)c1=O (stereo not shown) [Example 618, 1-(3-chloro-5′-fluoro-2′-hydroxy-3′-(2-(4-(tetrahydrofuran-3-yl)piperazin-1-yl)pyridin-4-yl)-[1,1′-biphenyl]-4-yl)-3-methyl-1H-imidazol-2(3H)-one]
1 to 10 nM | 30 to 300 nM |  |  | CN1CCN(c2ccc(-c3cc(F)cc(-c4cc(N5CCNCC5)c(=O)n(C)c4)c3O)cc2Cl)C1=O [Example 372, 5-(3′-chloro-5-fluoro-2-hydroxy-4′-(3-methyl-2-oxoimidazolidin-1-yl)-[1,1′-biphenyl]-3-yl)-1-methyl-3-(piperazin-1-yl)pyridin-2(1H)-one]
1 to 10 nM | 0.3 to 30 nM |  |  | COCC(C)(C)N1CCN(c2cc(-c3cc(F)cc(-c4ccc(-n5ccn(C)c5=O)c(Cl)c4)c3O)cn(C)c2=O)CC1 [Example 763]
0.01 to 1 nM | 0.3 to 30 nM |  |  | Cn1ccn(-c2ccc(-c3cc(F)cc(-c4ccnc(N5CCNC(C)(C)C5)c4)c3O)cc2Cl)c1=O [Example 563, 1-(3-chloro-3′-(2-(3,3-dimethylpiperazin-1-yl)pyridin-4-yl)-5′-fluoro-2′-hydroxy-[1,1′-biphenyl]-4-yl)-3-methyl-1H-imidazol-2(3H)-one]
0.01 to 1 nM | 0.3 to 30 nM |  |  | Cn1ccn(-c2ccc(-c3cc(F)cc(-c4ccnc(N5CCN(CC6COC6)CC5)c4)c3O)cc2Cl)c1=O [Example 611, 1-(3-chloro-5′-fluoro-2′-hydroxy-3′-(2-(4-(oxetan-3-ylmethyl)piperazin-1-yl)pyridin-4-yl)-[1,1′-biphenyl]-4-yl)-3-methyl-1H-imidazol-2(3H)-one]
1 to 10 nM | 300 to 3000 nM |  |  | CC(=O)Nc1ccc(-c2cccc(-c3ccnc(N4CCN[C@H](C)C4)c3)c2O)cc1Cl [Example 256, (R)-N-(3-chloro-2′-hydroxy-3′-(2-(3-methylpiperazin-1-yl)pyridin-4-yl)-[1,1′-biphenyl]-4-yl)acetamide]
1 to 10 nM | 30 to 300 nM |  |  | Cn1ccn(-c2ccc(-c3cc(F)cc(-c4ccnc(N5CC[C@@H](C(N)=O)C5)c4)c3O)cc2Cl)c1=O [Example 761, (R)-1-(4-(3′-chloro-5-fluoro-2-hydroxy-4′-(3-methyl-2-oxo-2,3-dihydro-1H-imidazol-1-yl)-[1,1′-biphenyl]-3-yl)pyridin-2-yl)pyrrolidine-3-carboxamide]
0.01 to 1 nM | 0.3 to 30 nM |  |  | C[C@@H]1CN(c2cc(-c3cc(F)cc(-c4ccc(-n5ccn(C)c5=O)c(Cl)c4)c3O)ccc2F)CCN1 [Example 677, (R)-1-(3-chloro-4″,5′-difluoro-2′-hydroxy-3″-(3-methylpiperazin-1-yl)-[1,1′:3′,1″-terphenyl]-4-yl)-3-methyl-1H-imidazol-2(3H)-one]
0.01 to 1 nM | 0.3 to 30 nM |  |  | Cn1ccn(-c2ccc(-c3cc(F)cc(-c4cnnc(N5CC[C@@](C)(O)C5)c4)c3O)cc2Cl)c1=O [Example 832, (R)-1-(3-chloro-5′-fluoro-2′-hydroxy-3′-(6-(3-hydroxy-3-methylpyrrolidin-1-yl)pyridazin-4-yl)-[1,1′-biphenyl]-4-yl)-3-methyl-1H-imidazol-2(3H)-one]
1 to 10 nM | 30 to 300 nM |  |  | COc1cc(-c2ccnc(N3CCNCC3)c2)c(O)c(-c2ccc(N3CCN(C)C3=O)c(Cl)c2)c1 [Example 312, l-(3-chloro-2′-hydroxy-5′-methoxy-3′-(2-(piperazin-1-yl)pyridin-4-yl)-[1,1′-biphenyl]-4-yl)-3-methylimidazolidin-2-one]
0.01 to 1 nM | 0.3 to 30 nM |  |  | Cc1cc(-c2ccnc(N3CCN[C@H](C)C3)c2)c(O)c(-c2ccc(-n3ccn(C)c3=O)c(F)c2)c1 [Example 546, (R)-1-(3-fluoro-2′-hydroxy-5′-methyl-3′-(2-(3-methylpiperazin-1-yl)pyridin-4-yl)-[1,1′-biphenyl]-4-yl)-3-methyl-1H-imidazol-2(3H)-one]
